Laboratory results: PMC11509018, “Evaluation of the Role of Tanshinone I in an In Vitro System of Charcot-Marie-Tooth Disease Type 2N” (International Journal of Molecular Sciences, 2024)

Biological target: T1, AlaRS R329H binding to GST-Nrp1 b1 (Homo sapiens, UniProt P49588, R329H)
T1 construct: made in house; host or cells: E. coli BL21 (DE3), pET-21a for AlaRS
T1 sequence (P49588 1-968 R329H): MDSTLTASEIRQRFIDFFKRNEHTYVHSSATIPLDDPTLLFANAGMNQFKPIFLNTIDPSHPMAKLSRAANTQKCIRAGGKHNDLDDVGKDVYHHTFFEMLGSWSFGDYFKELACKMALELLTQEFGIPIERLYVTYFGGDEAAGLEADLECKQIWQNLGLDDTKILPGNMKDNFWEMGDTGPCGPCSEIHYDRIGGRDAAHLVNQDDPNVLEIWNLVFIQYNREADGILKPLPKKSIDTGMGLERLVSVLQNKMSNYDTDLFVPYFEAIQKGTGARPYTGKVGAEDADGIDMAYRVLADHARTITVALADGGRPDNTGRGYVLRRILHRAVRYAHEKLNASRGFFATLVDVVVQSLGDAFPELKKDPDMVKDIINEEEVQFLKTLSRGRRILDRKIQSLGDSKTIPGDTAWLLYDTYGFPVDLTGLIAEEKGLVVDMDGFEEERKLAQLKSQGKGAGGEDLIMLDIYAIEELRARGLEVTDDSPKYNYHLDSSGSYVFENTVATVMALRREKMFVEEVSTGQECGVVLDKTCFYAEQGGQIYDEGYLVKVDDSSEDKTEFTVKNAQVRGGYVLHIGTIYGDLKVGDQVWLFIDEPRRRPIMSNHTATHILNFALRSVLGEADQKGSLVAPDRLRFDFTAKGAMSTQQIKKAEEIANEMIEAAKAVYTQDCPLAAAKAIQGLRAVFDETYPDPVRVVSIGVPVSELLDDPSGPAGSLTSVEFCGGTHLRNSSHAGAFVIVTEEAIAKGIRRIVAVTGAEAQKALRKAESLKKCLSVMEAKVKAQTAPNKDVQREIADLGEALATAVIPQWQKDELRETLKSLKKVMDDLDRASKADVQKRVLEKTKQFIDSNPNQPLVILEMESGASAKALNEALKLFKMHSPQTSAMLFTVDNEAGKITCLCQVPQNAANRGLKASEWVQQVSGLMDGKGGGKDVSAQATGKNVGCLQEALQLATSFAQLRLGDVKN
Test: GST pull down assay
Settings: 20 µM Tanshinone I, ImageJ, average of three repeats
Procedure: To further investigate whether Tanshinone I-induced conformational changes in AlaRS CMT mutants affect their interaction with Nrp1, Co-IP experiments were performed in cells treated with Tanshinone I. By comparing Co-IP results obtained before and after treatment, we assessed the influence of the drug on the binding strength and mode between the AlaRS CMT mutants and Nrp1. […] To confirm the direct effect of Tanshinone I on the interaction between AlaRS CMT mutants and Nrp1, pull-down experiments were performed. […] Given that the interaction between AlaRS mutants and Nrp1 is associated with disease progression in CMT, the ability of Tanshinone I to disrupt this binding highlights its potential to intervene in the pathogenic mechanisms of these diseases.
Figure 7 The impact of Tanshinone I on the interaction between AlaRS mutants and Nrp1. (A) Co-IP assays were conducted to assess the binding between HA-AlaRS mutants and Nrp1, both with and without treatment with 20 µM Tanshinone I for 24 h. […] (C) Pull down assay was performed to detect the binding between AlaRS mutants and GST-Nrp1 b1 with or without 20 µM Tanshinone I. (D) Relative quantification statistics of the AlaRS mutants pulled down from the GST pull down experiments after Tanshinone I treatment were performed using ImageJ. (E) The cell viability of 293T and NSC34 cells treated with different concentrations of Tanshinone I was assessed using the CCK-8 assay over a 24 h period. TEXT PRINTED IN THE PICTURE: (B) Tanshinone I: Mean density band (N71Y): 0.60; Mean density band (G102R): 0.53; Mean density band (R326W): 0.50; Mean density band (R329H): 0.50; Mean density band (E337K): 0.62 | (D) Tanshinone I: Mean density band (N71Y): 0.82; Mean density band (G102R): 0.76; Mean density band (R326W): 0.84; Mean density band (R329H): 0.84; Mean density band (E337K): 0.90
To detect the direct interactions between the mutant proteins and Nrp1 in vitro, we performed a Glutathione S-transferase (GST) pull-down assay. AlaRS mutants fused with 6 × His were purified with Ni-NTA beads, followed by chromatography on a HiTrap Q HP column. Nrp1 b1 fragments fused with GST were purified with Glutathione Beads (#SA008100, Smart-Lifesciences, Changzhou, China). For GST pull-down assays, 1000 μg of each GST-fused Nrp1 b1 fragment was mixed with 200 μg of 6 × His-tagged fusion protein in binding buffer (50 mM Tris-HCl pH 7.5, 20 mM NaCl, 5% glycerol, 5 mM DTT with 0.1% BSA) at 4 °C overnight. The mixture was next incubated with 30 μL glutathione beads at 4 °C with constant rotation for 2–4 h. Subsequently, the bead/protein complex was washed three times, and eluted with 30 μL 2 × SDS sample buffer. The samples were then subjected to SDS-PAGE analysis. The experiment was repeated three times.

- Mean density band (R329H), relative quantification of AlaRS mutant pulled down: 0.84
Compound: Cc1coc2c1C(=O)C(=O)c1c-2ccc2c(C)cccc12 [Tanshinone I]
